{"source": "patent US20240279710A1", "about": "“FLUORESCENT PROBES” (TOHOKU TECHNO ARCH CO., LTD., priority 2021, published 2024)", "system": "iPS cell-derived three-dimensional stereoscopic retinal tissue", "assay": "Glutamic acid injury model of iPS cell-derived three-dimensional stereoscopic retinal tissue", "format": "cell-based, human", "procedure": "Next, to confirm a reaction under conditions closer to those of a living organism, the iPS cell-derived three-dimensional stereoscopic retinal tissue on the 60th day of the differentiation induction was left at rest in a 24-well plate containing 1 mL of a reaction medium (obtained by adding CaCl2 (final concentration: 2.4 mM) and HEPES (final concentration: 20 mM) to a HBSS solution) in each well (n=5). The tissue was washed with 1 mL of the reaction medium twice, and glutamic acid was added thereto so that its final concentration became 0 μM, 300 μM, or 1 mM, followed by a reaction for 1 hour. Compound 19 was added to the resultant 1 hour after the addition of glutamic acid so that its final concentration became 0 μM, 0.25 μM, 1.2 μM, or 5.0 μM, and an image of the fluorescence of the mixture was taken with a fluorescence microscope (ZEISS Axio Vert.A1) (a RGB mode (lower stage) and a B/W mode (upper stage)) 1 hour thereafter. In all image-taking operations, an exposure time was fixed to 200 ms. The results of groups in which the final concentrations of glutamic acid are 0 μM, 300 μM, and 1 mM are shown in FIG. 25, FIG. 26, and FIG. 27, respectively. […] In addition, a graphical representation of an average calculated from fluorescence intensities in the images taken in the B/W mode (n=3) is shown in FIG. 28. […] In addition, results obtained by comparing and examining the fluorescence intensities of Compound 19 and Compound 16 are shown in FIG. 29.", "data": [{"smiles": "COCC(=O)N[C@@H](CC(C)C)C(=O)N[C@@H](CCSC)C(=O)Nc1ccc2c(c1)Oc1cc(N)ccc1C21OCc2ccccc21", "note": "(stereo partly drawn) [Compound 19]", "values": [{"measurement": "fluorescence images of retinal tissue", "setting": "glutamic acid 300 μM or 1 mM, probe 0, 0.25, 1.2 or 5.0 μM, 1 hour, FIG. 26, FIG. 27", "value": "enhancement of fluorescence expression was observed in proportion to the concentration of Compound 19"}, {"measurement": "fluorescence intensity compared with Compound 16", "setting": "glutamic acid 1 mM, probe 0.25 μM, 1.2 μM, or 5.0 μM, FIG. 29", "value": "stronger fluorescence than that of Compound 16"}, {"measurement": "average fluorescence intensity of retinal tissue (B/W mode)", "setting": "same glutamic acid concentration (0 μM, 300 μM, 1 mM), probe 0 to 5.0 μM, FIG. 28", "value": "fluorescence was strongly observed in a manner dependent on the concentration of Compound 19"}]}]}
